In PubChem BioAssay AID2060502 (Molecular Pharmacology Branch, DTP, NCI, 2025):

Tested on: 885724-159-R-J1-PDC complex spheroid viability
Test: Anticancer human tumor 885724-159-R-J1-PDC patient-derived pancreatic adenocarcinoma cell line growth inhibition [GQUAD]
Settings: for IC50: curve of first compound; for viability, T/C: stronger effect = lower value
In short: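 Tumor cells were grown as complex spheroids with HUVEC endothelial cells and mesenchymal stem cells as stroma. G-quadruplex stabilizers were combined with targeted agents over half-log dilutions from near the clinical Cmax, or from 10 microM.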

[1] = second compound 0.0316 µM, first compound 0.000999 µM
[2] = second compound 0.0316 µM, first compound 0.00316 µM
[3] = second compound 0.0316 µM, first compound 0.00999 µM
[4] = second compound 0.0316 µM, first compound 0.0316 µM
[5] = second compound 0.0316 µM, first compound 0.0999 µM
[6] = second compound 0.0316 µM, first compound 0.316 µM
[7] = second compound 0.1 µM, first compound 0.000999 µM
[8] = second compound 0.1 µM, first compound 0.00316 µM
[9] = second compound 0.1 µM, first compound 0.00999 µM
[10] = second compound 0.1 µM, first compound 0.0316 µM
[11] = second compound 0.1 µM, first compound 0.0999 µM
[12] = second compound 0.1 µM, first compound 0.316 µM
[13] = second compound 0.316 µM, first compound 0.000999 µM
[14] = second compound 0.316 µM, first compound 0.00316 µM
[15] = second compound 0.316 µM, first compound 0.00999 µM
[16] = second compound 0.316 µM, first compound 0.0316 µM
[17] = second compound 0.316 µM, first compound 0.0999 µM
[18] = second compound 0.316 µM, first compound 0.316 µM
[19] = second compound 1 µM, first compound 0.000999 µM
[20] = second compound 1 µM, first compound 0.00316 µM
[21] = second compound 1 µM, first compound 0.00999 µM
[22] = second compound 1 µM, first compound 0.0316 µM
[23] = second compound 1 µM, first compound 0.0999 µM
[24] = second compound 1 µM, first compound 0.316 µM
[25] = second compound 3.16 µM, first compound 0.000999 µM
[26] = second compound 3.16 µM, first compound 0.00316 µM
[27] = second compound 3.16 µM, first compound 0.00999 µM
[28] = second compound 3.16 µM, first compound 0.0316 µM
[29] = second compound 3.16 µM, first compound 0.0999 µM
[30] = second compound 3.16 µM, first compound 0.316 µM
[31] = second compound 10 µM, first compound 0.000999 µM
[32] = second compound 10 µM, first compound 0.00316 µM
[33] = second compound 10 µM, first compound 0.00999 µM
[34] = second compound 10 µM, first compound 0.0316 µM
[35] = second compound 10 µM, first compound 0.0999 µM
[36] = second compound 10 µM, first compound 0.316 µM
[37] = second compound 0.0316 µM, first compound 0.1 µM
[38] = second compound 0.0316 µM, first compound 1 µM
[39] = second compound 0.0316 µM, first compound 3.16 µM
[40] = second compound 0.0316 µM, first compound 10 µM
[41] = second compound 0.1 µM, first compound 0.1 µM
[42] = second compound 0.1 µM, first compound 1 µM
[43] = second compound 0.1 µM, first compound 3.16 µM
[44] = second compound 0.1 µM, first compound 10 µM
[45] = second compound 0.316 µM, first compound 0.1 µM
[46] = second compound 0.316 µM, first compound 1 µM
[47] = second compound 0.316 µM, first compound 3.16 µM
[48] = second compound 0.316 µM, first compound 10 µM
[49] = second compound 1 µM, first compound 0.1 µM
[50] = second compound 1 µM, first compound 1 µM
[51] = second compound 1 µM, first compound 3.16 µM
[52] = second compound 1 µM, first compound 10 µM
[53] = second compound 3.16 µM, first compound 0.1 µM
[54] = second compound 3.16 µM, first compound 1 µM
[55] = second compound 3.16 µM, first compound 3.16 µM
[56] = second compound 3.16 µM, first compound 10 µM
[57] = second compound 10 µM, first compound 0.1 µM
[58] = second compound 10 µM, first compound 1 µM
[59] = second compound 10 µM, first compound 3.16 µM
[60] = second compound 10 µM, first compound 10 µM
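Also: spheroids exposed to agents for seven days before readout.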
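For viability, T/C in this document: percent of vehicle control viability where 100% = DMSO wells.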

CC[C@@]1(O)C(=O)OCc2c1cc1n(c2=O)Cc2cc3c(CN(C)C)c(O)ccc3nc2-1 + Cc1[nH]c2ccc(F)cc2c1-c1nc2c3cccnc3c3ncccc3c2[nH]1
IC50 (second compound 0.0316 µM): > 0.316 µM
IC50 (second compound 0.1 µM): > 0.316 µM
IC50 (second compound 0.316 µM): > 0.316 µM
IC50 (second compound 1 µM): > 0.316 µM
IC50 (second compound 3.16 µM): < 0.000999 µM
IC50 (second compound 10 µM): > 0.316 µM
viability, T/C [1]: 90.3%
viability, T/C [2]: 114%
viability, T/C [3]: 98.9%
viability, T/C [4]: 97.6%
viability, T/C [5]: 84.2%
viability, T/C [6]: 68.7%
viability, T/C [7]: 98.9%
viability, T/C [8]: 104%
viability, T/C [9]: 98%
viability, T/C [10]: 93.6%
viability, T/C [11]: 87.8%
viability, T/C [12]: 74.6%
viability, T/C [13]: 85.5%
viability, T/C [14]: 83.9%
viability, T/C [15]: 96.7%
viability, T/C [16]: 78.2%
viability, T/C [17]: 80.8%
viability, T/C [18]: 69.2%
viability, T/C [19]: 80.8%
viability, T/C [20]: 75.7%
viability, T/C [21]: 67.7%
viability, T/C [22]: 75.5%
viability, T/C [23]: 67%
viability, T/C [24]: 60.5%
viability, T/C [25]: 42.8%
viability, T/C [26]: 30.9%
viability, T/C [27]: 35.1%
viability, T/C [28]: 34.2%
viability, T/C [29]: 33.3%
viability, T/C [30]: 23.6%
viability, T/C [31]: 64.1%
viability, T/C [32]: 72.6%
viability, T/C [33]: 70.2%
viability, T/C [34]: 68.3%
viability, T/C [35]: 63.4%
viability, T/C [36]: 49.1%

O=c1[nH]cc(F)c(=O)[nH]1 + Cc1[nH]c2ccc(F)cc2c1-c1nc2c3cccnc3c3ncccc3c2[nH]1
IC50 (second compound 0.0316 µM): > 10 µM
IC50 (second compound 0.1 µM): > 10 µM
IC50 (second compound 0.316 µM): > 10 µM
IC50 (second compound 1 µM): > 10 µM
IC50 (second compound 3.16 µM): < 0.0316 µM
IC50 (second compound 10 µM): > 10 µM
viability, T/C [4]: 101%
viability, T/C [37]: 103%
viability, T/C [6]: 98.5%
viability, T/C [38]: 95.9%
viability, T/C [39]: 97.1%
viability, T/C [40]: 86%
viability, T/C [10]: 103%
viability, T/C [41]: 89.3%
viability, T/C [12]: 91%
viability, T/C [42]: 93.5%
viability, T/C [43]: 93.7%
viability, T/C [44]: 86.3%
viability, T/C [16]: 107%
viability, T/C [45]: 94.7%
viability, T/C [18]: 81.6%
viability, T/C [46]: 82%
viability, T/C [47]: 97.5%
viability, T/C [48]: 95.6%
viability, T/C [22]: 76.4%
viability, T/C [49]: 74.7%
viability, T/C [24]: 75%
viability, T/C [50]: 70.7%
viability, T/C [51]: 68.3%
viability, T/C [52]: 69.9%
viability, T/C [28]: 39.2%
viability, T/C [53]: 42.6%
viability, T/C [30]: 41.3%
viability, T/C [54]: 41.6%
viability, T/C [55]: 45.1%
viability, T/C [56]: 42.3%
viability, T/C [34]: 66.1%
viability, T/C [57]: 77.2%
viability, T/C [36]: 70.3%
viability, T/C [58]: 71.3%
viability, T/C [59]: 81.3%
viability, T/C [60]: 62.9%

Cn1ncnc1[C@H]1c2n[nH]c(=O)c3cc(F)cc(c23)N[C@@H]1c1ccc(F)cc1 + Cc1[nH]c2ccc(F)cc2c1-c1nc2c3cccnc3c3ncccc3c2[nH]1
IC50 (second compound 0.0316 µM): > 0.316 µM
IC50 (second compound 0.1 µM): > 0.316 µM
IC50 (second compound 0.316 µM): > 0.316 µM
IC50 (second compound 1 µM): > 0.316 µM
IC50 (second compound 3.16 µM): < 0.000999 µM
IC50 (second compound 10 µM): > 0.316 µM
viability, T/C [1]: 104%
viability, T/C [2]: 95.2%
viability, T/C [3]: 106%
viability, T/C [4]: 80.6%
viability, T/C [5]: 91.9%
viability, T/C [6]: 95.8%
viability, T/C [7]: 97.5%
viability, T/C [8]: 90%
viability, T/C [9]: 85.6%
viability, T/C [10]: 93.9%
viability, T/C [11]: 88.3%
viability, T/C [12]: 80.2%
viability, T/C [13]: 87.3%
viability, T/C [14]: 106%
viability, T/C [15]: 92%
viability, T/C [16]: 91.3%
viability, T/C [17]: 80.8%
viability, T/C [18]: 82.2%
viability, T/C [19]: 78%
viability, T/C [20]: 68.4%
viability, T/C [21]: 68.8%
viability, T/C [22]: 73.6%
viability, T/C [23]: 72%
viability, T/C [24]: 81%
viability, T/C [25]: 40.1%
viability, T/C [26]: 36.1%
viability, T/C [27]: 43.8%
viability, T/C [28]: 33.8%
viability, T/C [29]: 38%
viability, T/C [30]: 42.8%
viability, T/C [31]: 63%
viability, T/C [32]: 78.6%
viability, T/C [33]: 73.6%
viability, T/C [34]: 66.8%
viability, T/C [35]: 80.6%
viability, T/C [36]: 68.2%

C#Cc1c(F)ccc2cc(O)cc(-c3ncc4c(N5CC6CCC(C5)N6)nc(OCC56CCCN5CC(F)C6)nc4c3F)c12 (stereo not drawn) + Cc1[nH]c2ccc(F)cc2c1-c1nc2c3cccnc3c3ncccc3c2[nH]1
IC50 (second compound 0.0316 µM): 4.05 µM
IC50 (second compound 0.1 µM): 3.75 µM
IC50 (second compound 0.316 µM): 4.07 µM
IC50 (second compound 1 µM): 3.55 µM
IC50 (second compound 3.16 µM): < 0.0316 µM
IC50 (second compound 10 µM): 4.5 µM
viability, T/C [4]: 97%
viability, T/C [37]: 89.2%
viability, T/C [6]: 90.3%
viability, T/C [38]: 76.1%
viability, T/C [39]: 57.5%
viability, T/C [40]: 23.4%
viability, T/C [10]: 101%
viability, T/C [41]: 97.8%
viability, T/C [12]: 102%
viability, T/C [42]: 87.4%
viability, T/C [43]: 54.6%
viability, T/C [44]: 24.9%
viability, T/C [16]: 94.5%
viability, T/C [45]: 80.4%
viability, T/C [18]: 85.4%
viability, T/C [46]: 62.9%
viability, T/C [47]: 63.1%
viability, T/C [48]: 28%
viability, T/C [22]: 72.5%
viability, T/C [49]: 69.2%
viability, T/C [24]: 75%
viability, T/C [50]: 59.4%
viability, T/C [51]: 54.2%
viability, T/C [52]: 29.5%
viability, T/C [28]: 18.4%
viability, T/C [53]: 8.81%
viability, T/C [30]: 12.7%
viability, T/C [54]: 11.5%
viability, T/C [55]: 9.79%
viability, T/C [56]: 6.07%
viability, T/C [34]: 63.1%
viability, T/C [57]: 75.8%
viability, T/C [36]: 66%
viability, T/C [58]: 61.2%
viability, T/C [59]: 63.2%
viability, T/C [60]: 21.7%
